Laboratory results taken from patent US20250214942A1, “INHIBITORS OF RECEPTOR INTERACTING PROTEIN KINASE I FOR THE TREATMENT OF DISEASE” (Board of Regents, The University of Texas System, priority 2019, published 2025).

Experiments:
RIPK1 = RIPK1 (Homo sapiens (Human), UniProt Q13546); experiment: ADP-Glo kinase assay (RIPK1 activity, conversion of ATP to ADP); type: biochemical; details: for IC50: 5 nM RIPK1, 50 μM ATP, 6 h reaction, read-out: RIPK1 Enzyme Avg IC50
How it was run: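 RIPK1 (5 nM final) was preincubated 10 min at rt with 1:3-diluted compounds in HEPES pH 7.5/MgCl2/DTT/BSA/CHAPS buffer. ATP (50 μM final) was then added for 6 h, and ADP formed was read by ADP-Glo luminescence. IC50 values came from four-parameter logistic fitting.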

[1] = test system: human monocytic cell line U937; experiment: Human U937 cellular necroptosis assay (TNFalpha + z-VAD-FMK, Cell Titer-Glo viability); type: cell-based; details: Homo sapiens, U-937, 22 h, U937 cells, 25 ng/mL human TNFalpha + 25 μM z-VAD-FMK, read-out: hU937 Avg IC50
How it was run: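 Readout is CellTiter-Glo 2.0 luminescence after 22 h at 37° C with compound, in cells triggered by human TNFalpha (25 ng/mL) and z-VAD-FMK (25 μM) in phenol red-free RPMI/10% FBS. Values are run-averaged IC50s from a four-parameter logistic curve.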

Chain of RIPK1 (Q13546 1-327): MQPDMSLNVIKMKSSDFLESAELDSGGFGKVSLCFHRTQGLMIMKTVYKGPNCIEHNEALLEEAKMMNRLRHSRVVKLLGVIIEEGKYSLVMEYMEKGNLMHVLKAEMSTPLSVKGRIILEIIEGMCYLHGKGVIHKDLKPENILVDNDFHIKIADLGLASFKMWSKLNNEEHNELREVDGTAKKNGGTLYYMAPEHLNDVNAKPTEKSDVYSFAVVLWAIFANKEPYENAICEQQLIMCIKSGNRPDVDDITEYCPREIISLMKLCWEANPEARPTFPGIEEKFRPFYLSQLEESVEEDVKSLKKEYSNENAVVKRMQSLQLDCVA

Row | IC50 (RIPK1) | observed potency relative to the other enantiomer (RIPK1; enantiomers separated by SFC, assay not named) | SMILES | IC50 [1]
1 | 19 nM |  | N#Cc1ccc2c(cnn2CC23CC(C(=O)N4CC(F)CC4c4cccc(F)c4)(C2)C3)c1 (stereo not drawn) [Example 176, 1-((3-(4-fluoro-2-(3-fluoro-phenyl)pyrrolidine-1-carbonyl)bicyclo[1.1.1]-pentan-1-yl)methyl)-1H-indazole-5-carbonitrile] | 87 nM
2 | 18 nM |  | O=C(N1N=CCC1c1cc(F)cc(F)c1)C12CC(COc3ccc(F)cc3F)(C1)C2 (stereo not drawn) [Example 335, (3-((2,4-difluorophenoxy)-methyl)bicyclo[1.1.1]pentan-1-yl)(5-(3,5-difluorophenyl)-4,5-dihydro-1H-pyrazol-1-yl)methanone] | 46 nM
3 | 243 nM |  | N#Cc1cc(NCC23CC(C(=O)N4N=CCC4c4cc(F)cc(F)c4)(C2)C3)ncn1 (stereo not drawn) [Example 12, 6-(((3-(5-(3,5-Difluorophenyl)-4,5-dihydro-1H-pyrazole-1-carbonyl)bicyclo[1.1.1]pentan-1-yl)methyl)amino)pyrimidine-4-carbonitrile] | 887 nM
4 | 32 nM |  | N#Cc1ccc(OCC23CC(C(=O)N4N=CCC4c4cc(F)cc(F)c4)(C2)C3)c(Cl)c1 (stereo not drawn) [Example 202, 3-Chloro-4-((3-(5-(3,5-difluorophenyl)-4,5-dihydro-1H-pyrazole-1-carbonyl)bicyclo[1.1.1]pentan-1-yl)methoxy)benzonitrile] | 18 nM
5 | 24 nM |  | O=C(N1N=CCC1c1cc(F)cc(F)c1)C12CC(Cn3cc4ccncc4n3)(C1)C2 (stereo not drawn) [Example 88, (3-((2H-pyrazolo[3,4-c]-pyridin-2-yl)methyl)bicyclo-[1.1.1]pentan-1-yl)(5-(3,5-difluorophenyl)-4,5-dihydro-1H-pyrazol-1-yl)methanone] | 94 nM
6 | 22 nM |  | Cc1cnc(C2CC=NN2C(=O)C23CC(Cn4ncc5cc(C#N)ccc54)(C2)C3)cn1 (stereo not drawn) [Example 49, 1-((3-(5-(5-Methylpyrazin-2-yl)-4,5-dihydro-1H-pyrazole-1-carbonyl)-bicyclo[1.1.1]pentan-1-yl)methyl)-1H-indazole-5-carbonitrile] | 67 nM
7 | 75 nM |  | COc1ccnc(OCC23CC(C(=O)N4N=CCC4c4cc(F)cc(F)c4)(C2)C3)n1 (stereo not drawn) [Example 327, (5-(3,5-difluorophenyl)-4,5-dihydro-1H-pyrazol-1-yl)(3-(((4-methoxypyrimidin-2-yl)oxy)methyl)bicyclo[1.1.1]-pentan-1-yl)methanone] | 381 nM
8 | 4520 nM |  | N#Cc1ccc2c(cnn2CC23CC(C(=O)NCc4cc(F)cc(F)c4)(C2)C3)c1 [Example 261, 3-((5-cyano-1H-indazol-1-yl)methyl)-N-(3,5-difluoro-benzyl)bicyclo[1.1.1]pentane-1-carboxamide] | 9470 nM
9 | 19 nM |  | N#Cc1ccc(OCC23CC(C(=O)N4N=CCC4c4cc(F)cc(F)c4)(C2)C3)nc1 (stereo not drawn) [Example 320, 6-((3-(5-(3,5-difluorophenyl)-4,5-dihydro-1H-pyrazole-1-carbonyl)bicyclo[1.1.1]pentan-1-yl)methoxy)nicotinonitrile] | 30 nM
10 | 30 nM |  | O=C(N1N=CCC1c1ccccc1)C12CC(Cn3ncc4ncccc43)(C1)C2 (stereo not drawn) [Example 147, (3-((1H-pyrazolo[4,3-b]-pyridin-1-yl)methyl)-bicyclo[1.1.1]pentan-1-yl)(5-phenyl-4,5-dihydro-1H-pyrazol-1-yl)methanone] | 142 nM
11 | 17 nM |  | N#Cc1ccc2c(cnn2CC23CC(C(=O)N4N=CCC4c4cncc(F)c4)(C2)C3)c1 (stereo not drawn) [Example 128, 1-((3-(5-(5-fluoropyridin-3-yl)-4,5-dihydro-1H-pyrazole-1-carbonyl)bicyclo[1.1.1]-pentan-1-yl)methyl)-1H-indazole-5-carbonitrile] | 48 nM
12 |  | more potent isomer | N#Cc1cnc(OCC23CC(C(=O)N4N=CC[C@H]4c4cc(F)cc(F)c4)(C2)C3)cn1 [Example 201, (S)-5-((3-(5-(3,5-difluorophenyl)-4,5-dihydro-1H-pyrazole-1-carbonyl)bicyclo[1.1.1]pentan-1-yl)methoxy)pyrazine-2-carbonitrile] | 7.1 nM
13 | 896 nM |  | NC(=O)c1cnnn1CC12CC(C(=O)N3N=CCC3c3cc(F)cc(F)c3)(C1)C2 (stereo not drawn) [Example 55, 1-((3-(5-(3,5-difluorophenyl)-4,5-dihydro-1H-pyrazole-1-carbonyl)-bicyclo[1.1.1]pentan-1-yl)methyl)-1H-1,2,3-triazole-5-carboxamide] | 8930 nM
14 | 19 nM |  | N#Cc1ccc2cn(CC34CC(C(=O)N5N=CCC5c5cc(F)cc(F)c5)(C3)C4)nc2c1 (stereo not drawn) [Example 56, 2-((3-(5-(3,5-difluorophenyl)-4,5-dihydro-1H-pyrazole-1-carbonyl)bicyclo[1.1.1]-pentan-1-yl)methyl)-2H-indazole-6-carbonitrile] | 63 nM
15 | 308 nM |  | N#Cc1cnn(CC23CC(C(=O)N4N=CCC4c4cncc(F)c4)(C2)C3)c1 (stereo not drawn) [Example 166, 1-((3-(5-(5-fluoropyridin-3-yl)-4,5-dihydro-1H-pyrazole-1-carbonyl)bicyclo[1.1.1]-pentan-1-yl)methyl)-1H-pyrazole-4-carbonitrile] | 1970 nM
16 | 2270 nM |  | O=C(N1N=CCC1c1cc(F)cc(F)c1)C12CC(CO)(C1)C2 (stereo not drawn) [Example 208, (5-(3,5-Difluorophenyl)-4,5-dihydro-1H-pyrazol-1-yl)(3-(hydroxymethyl)bicyclo[1.1.1]pentan-1-yl)methanone] | 4300 nM
17 | 111 nM |  | COc1ccc2cnn(CC34CC(C(=O)N5N=CCC5c5cc(F)cc(F)c5)(C3)C4)c2c1 (stereo not drawn) [Example 73, (5-(3,5-difluorophenyl)-4,5-dihydro-1H-pyrazol-1-yl)(3-((6-methoxy-1H-indazol-1-yl)methyl)bicyclo[1.1.1]-pentan-1-yl)methanone] | 527 nM
18 | 19 nM |  | O=C(N1N=CCC1c1cc(F)cc(F)c1)C12CC(COc3cccc(F)c3Cl)(C1)C2 (stereo not drawn) [Example 332, (3-((2-chloro-3-fluoro-phenoxy)methyl)bicyclo-[1.1.1]pentan-1-yl)(5-(3,5-difluorophenyl)-4,5-dihydro-1H-pyrazol-1-yl)methanone] | 33 nM
19 | 16 nM |  | N#Cc1ccc(OCC23CC(C(=O)N4N=CCC4c4cc(F)cc(F)c4)(C2)C3)c(F)c1 (stereo not drawn) [Example 333, 4-((3-(5-(3,5-difluorophenyl)-4,5-dihydro-1H-pyrazole-1-carbonyl)bicyclo[1.1.1]pentan-1-yl)methoxy)-3-fluoro-benzonitrile] | 36 nM
20 | 32 nM |  | COc1ccc2cn(CC34CC(C(=O)N5N=CCC5c5cc(F)cc(F)c5)(C3)C4)nc2c1 (stereo not drawn) [Example 57, (5-(3,5-difluorophenyl)-4,5-dihydro-1H-pyrazol-1-yl)(3-((6-methoxy-2H-indazol-2-yl)methyl)bicyclo[1.1.1]-pentan-1-yl)methanone] | 110 nM
21 | 865 nM |  | N#Cc1cncc(C2CC=NN2C(=O)C23CC(Cn4cc(C#N)cn4)(C2)C3)c1 (stereo not drawn) [Example 168, 5-(1-(3-((4-cyano-1H-pyrazol-1-yl)methyl)-bicyclo[1.1.1]pentane-1-carbonyl)-4,5-dihydro-1H-pyrazol-5-yl)nicotinonitrile] | 6190 nM
22 | 21 nM |  | O=C(N1N=CCC1c1cc(F)cc(F)c1)C12CC(Cn3ncc4ccncc43)(C1)C2 (stereo not drawn) [Example 87, (3-((1H-pyrazolo[3,4-c]-pyridin-1-yl)methyl)bicyclo-[1.1.1]pentan-1-yl)(5-(3,5-difluorophenyl)-4,5-dihydro-1H-pyrazol-1-yl)methanone] | 33 nM
23 | 42 nM |  | Cc1cn(CC23CC(C(=O)N4N=CCC4c4cc(F)cc(F)c4)(C2)C3)nc1C#N (stereo not drawn) [Example 157, 1-((3-(5-(3,5-difluorophenyl)-4,5-dihydro-1H-pyrazole-1-carbonyl)bicyclo[1.1.1]-pentan-1-yl)methyl)-4-methyl-1H-pyrazole-3-carbonitrile] | 170 nM
24 | 34 nM |  | O=C(N1N=CCC1c1cc(F)cc(F)c1)C12CC(Cn3cc4cccc(Cl)c4n3)(C1)C2 (stereo not drawn) [Example 58, (3-((7-chloro-2H-indazol-2-yl)methyl)bicyclo[1.1.1]-pentan-1-yl)(5-(3,5-difluoro-phenyl)-4,5-dihydro-1H-pyrazol-1-yl)methanone] | 160 nM
25 | 31 nM |  | O=C(N1N=CCC1c1cc(F)cc(F)c1)C12CC(C(F)c3cccc(Cl)c3)(C1)C2 (stereo not drawn) [Example 42, (3-((3-chlorophenyl)fluoromethyl)bicyclo[1.1.1]pentan-1-yl)(5-(3,5-difluorophenyl)-4,5-dihydro-1H-pyrazol-1-yl)methanone] | 51 nM
26 | 78 nM |  | O=C(N1N=CCC1c1cc(F)cc(F)c1)C12CC(Cn3cc(C(F)(F)F)cn3)(C1)C2 (stereo not drawn) [Example 72, (5-(3,5-difluorophenyl)-4,5-dihydro-1H-pyrazol-1-yl)(3-((4-(trifluoromethyl)-1H-pyrazol-1-yl)methyl)bicyclo-[1.1.1]pentan-1-yl)methanone] | 98 nM
27 | 18 nM |  | O=C(N1N=CCC1c1cc(F)cc(F)c1)C12CC(COc3ccc(F)cc3Cl)(C1)C2 (stereo not drawn) [Example 334, (3-((2-chloro-4-fluoro-phenoxy)methyl)bicyclo-[1.1.1]pentan-1-yl)(5-(3,5-difluorophenyl)-4,5-dihydro-1H-pyrazol-1-yl)methanone] | 45 nM
